Data taken from US12391726B2, “Ursolic acid morpholine salt” (EMMYON, INC., priority 2017, dated 2025).
Where a name gives a salt, the structure may show the parent alone. Read-outs that look alike come from different tables or passages of the source. Marks after values point to notes of the source that are not given here.

How the values were obtained:
male C57BL/6 mice [1] = test: Comparative grip strength testing for ursolic acid and salts thereof (standard chow, 6 weeks); format: in vivo; conditions: for Grip Strength (% Change vs. Control): 6 weeks, mean ± SEM, 12 mice; for Potency and efficacy compared with native ursolic acid and other ursolic acid salts: conclusion from Table I grip strength data
Source text: Weight-matched cohorts of 8-week old male C57BL/6 mice were randomized to receive ad libitum access to either standard chow (control) or standard chow supplemented with either 0.050% ursolic acid, 0.200% ursolic acid, or one of the indicated ursolic acid salts: ursolic acid-ethanolamine salt; ursolic acid-tris(hydroxymethyl)aminomethane salt, hereinafter referred to as ursolic acid-“tris” salt; ursolic acid-lysine salt; ursolic acid-diethanolamine salt; ursolic acid-morpholine salt; or ursolic acid-piperazine salt. The ursolic acid-diethanolamine salt and ursolic acid-morpholine salt were prepared as described above. Ursolic acid was commercially obtained, and was used as a starting material to make the other ursolic acid salts according to techniques analogous to those above and known in the art. The doses of ursolic acid salts were molar-matched to either 0.050% ursolic acid (i.e. 0.057% ursolic acid-ethanolamine salt, 0.063% ursolic acid-tris salt, 0.066% ursolic acid-lysine salt, 0.059% ursolic acid-morpholine salt, and 0.059% ursolic acid-piperazine salt) or to 0.048% ursolic acid (i.e. 0.060% ursolic acid-diethanolamine salt). After mice had consumed these diets for 6 weeks, in vivo grip strength was measured.

male C57BL/6 mice [2] = test: Direct comparison to molar-matched ursolic acid in obesity-induced glucose intolerance (high-fat chow, 7 weeks); format: in vivo; conditions: 6 h fast, 0.050% ursolic acid or 0.059% morpholine salt, P<0.01
Procedure: Weight-matched cohorts of 8-week old male C57BL/6 mice were randomized to receive ad libitum access to either high-fat chow supplemented with 0.050% ursolic acid, or high-fat chow supplemented with a molar-matched dose of ursolic acid-morpholine salt (0.059%). After mice had consumed the diets for 7 weeks, mice were fasted for 6 hours and then subjected to glucose tolerance testing. […] Data are means±SEM from 10 mice per cohort.

C2C12 myotubes = test: Total cellular protein in cultured C2C12 myotubes (in vitro model of skeletal muscle); format: cell-based; conditions: 48 hours, 10% FBS; for Total cellular protein (FIG. 6): normalized to vehicle-treated, dose-dependent
Procedure: A direct, side-by-side comparison of ursolic acid and ursolic acid-morpholine salt was performed in an in vitro model of skeletal muscle. C2C12 myoblasts were cultured and fully differentiated into post-mitotic skeletal myotubes, then incubated for 48 hours with 10% fetal bovine serum (FBS) plus the indicated concentrations of ursolic acid or ursolic acid-morpholine salt. Myotubes were then harvested for assessment of total cellular protein, which increases as myotubes undergo hypertrophy. (See Dyle et al., Systems-based discovery of tomatidine as a natural small molecule inhibitor of skeletal muscle atrophy, Journal of Biological Chemistry 289, (2014) 14913-14924.) Total protein in each sample was normalized to the amount of in vehicle-treated myotubes. […] Results are shown in FIG. 6, which is a graph depicting results from the direct, side-by-side comparison of ursolic acid and ursolic acid-morpholine salt in the cultured C2C12 myotubes in vitro model of skeletal muscle.

male C57BL/6 mice [3] = conditions: high-fat chow, 8 weeks, 0.500% Ursolic Acid or 0.059% morpholine salt; for Skeletal Muscle Wt (mg/g Final Body Wt): total dissected muscle weight normalized to final body weight
Source text: Weight-matched cohorts of 8-week old male C57BL/6 mice were randomized to receive ad libitum access to either high-fat chow (control), high-fat chow supplemented with 0.050% ursolic acid, or high-fat chow supplemented with a molar-matched dose of ursolic acid-morpholine salt (0.059%). Just prior to starting these diets, mice were weighed and subjected to body composition analysis by NMR. After mice had consumed the diets for 8 weeks, body weight and body composition were re-assessed, retroperitoneal and epididymal fat pads were dissected and weighed, and skeletal muscles (tibialis anterior, gastrocnemius, soleus, quadriceps and triceps) were dissected and weighed. In each mouse, the total dissected skeletal muscle weight (combined weight of bilateral tibialis anterior, gastrocnemius, soleus, quadriceps and triceps muscles) was normalized to the final body weight. Data are means±SEM from 10 mice per cohort.

male C57BL/6 mice [4] = test: Ursolic acid-diethanolamine salt: body weight and composition testing (standard chow, 7 weeks); format: in vivo
Procedure: After mice had consumed these diets for 7 weeks, mice were weighed and body composition was assessed by NMR. Data are means±SEM from 15 mice per cohort. *P<0.05.

male C57BL/6 mice [5] = conditions: 0.059% in standard chow, 7 weeks
Procedure: Weight-matched cohorts of 8-week old male C57BL/6 mice were randomized to receive ad libitum access to either standard chow (control) or standard chow supplemented with 0.059% ursolic acid-morpholine salt. After mice had consumed these diets for 7 weeks, in vivo, grip strength was measured, mice were weighed, body composition was assessed by NMR, and quadriceps muscles were dissected for histological analysis of skeletal muscle fiber cross-sectional diameter.

male C57BL/6 mice [6] = conditions: quadriceps, 0.059% in standard chow, 7 weeks, vs control
Source text: (§1) Weight-matched cohorts of 8-week old male C57BL/6 mice were randomized to receive ad libitum access to either standard chow (control) or standard chow supplemented with 0.059% ursolic acid-morpholine salt. After mice had consumed these diets for 7 weeks, quadriceps muscles were dissected, fixed, cross-sectioned, stained with hematoxylin and eosin, and subjected to photomicrography. FIG. 1A is a photomicrograph of quadriceps skeletal muscle fibers from the control group. FIG. 1B is a photomicrograph of quadriceps skeletal muscle fibers from the ursolic acid-morpholine salt group.

male C57BL/6 mice [7] = conditions: retroperitoneal fat pads, 0.059% in standard chow, 7 weeks, vs control
Source text: as §1, with “retroperitoneal fat pads” for “quadriceps muscles”, “2A” for “1A”, “adipocytes from retroperitoneal fat pads” for “quadriceps skeletal muscle fibers”, “2B” for “1B”

diet-induced obese mice = test: Obesity and blood glucose testing (high-fat chow, 9 weeks); format: in vivo; conditions: 0.059% in high-fat chow
Source text: Weight-matched cohorts of 8-week old male C57BL/6 mice were randomized to receive ad libitum access to either high-fat chow (control) or high-fat chow supplemented with 0.059% ursolic acid-morpholine salt. Just prior to starting these diets, mice were weighed and subjected to body composition analysis by NMR. After mice had consumed the diets for 9 weeks, body weight and body composition were re-assessed, retroperitoneal and epididymal fat pads were dissected and weighed, and non-fasting blood glucose was measured.

male C57BL/6 mice [8] = conditions: 0.059% in high-fat chow, 8 weeks, 6 h fast; control 37,122±1,339; P<0.01
Procedure: Weight-matched cohorts of 8-week old male C57BL/6 mice were randomized to receive ad libitum access to either high-fat chow (control) or high-fat chow supplemented with 0.059% ursolic acid-morpholine salt. After mice had consumed the diets for 8 weeks, mice were fasted for 6 hours and then subjected to glucose tolerance testing. Results are shown in FIG. 3, which is a graph depicting glucose tolerance testing results. Data are means±SEM from 15 mice per cohort.

male C57BL/6 mice [9] = test: Comparison with a maximally effective dose of ursolic acid (high-fat diet, 7 weeks, glucose tolerance test); format: in vivo; conditions: 0.059% morpholine salt vs 0.20% w/w ursolic acid
Procedure: After 7 weeks on the diets, mice were fasted for 6 hours and were then subjected to glucose tolerance tests.

[10] = standard chow supplemented, doses molar-matched to 0.050% ursolic acid (0.048% for diethanolamine salt): 0.050% ursolic acid, 0.057% ethanolamine, 0.063% tris, 0.066% lysine, 0.060% diethanolamine, 0.059% morpholine, 0.059% piperazine salt

## C[C@H]1[C@H](C)CC[C@]2(C(=O)O)CC[C@]3(C)C(=CC[C@@H]4[C@@]5(C)CC[C@H](O)C(C)(C)C5CC[C@]43C)[C@H]12 (stereo partly shown) [Ursolic Acid, Ursolic acid]
Male C57BL/6 mice [1]; [10]
  Grip Strength (% Change vs. Control): 7.7 ± 1.9%
Male C57BL/6 mice [1]; standard chow with 0.200% ursolic acid
  Grip Strength (% Change vs. Control): 9.9 ± 2.2 %
Male C57BL/6 mice [2]
  Fasting blood glucose: 166.3 ± 3.7 mg/dL
  Glucose tolerance test area under the curve (AUC): 40,585±1,357
C2C12 myotubes
  Total cellular protein (FIG. 6): significantly increased
Male C57BL/6 mice [3]
  Epididymal Fat Pad Wt: 2208.6 ± 52.0 ^a mg
  Final % Fat: 39.8 ± 0.7 ^a %
  Final % Lean: 50.4 ± 0.5 ^a %
  Final Body Wt: 40.8 ± 0.5 ^a g
  Final Fat Mass: 16.3 ± 0.3 ^a g
  Final Lean Mass: 20.6 ± 0.3 ^a g
  Retroperitoneal Fat Pad Wt: 986.1 ± 21.8 ^a mg
  Skeletal Muscle Wt (mg/g Final Body Wt): 25.5 ± 0.4 ^a mg/g Final Body Wt

## C[C@H]1[C@H](C)CC[C@]2(C(=O)O)CC[C@]3(C)C(=CCC4[C@@]5(C)CC[C@H](O)C(C)(C)C5CC[C@]43C)[C@H]12 (stereo partly shown) [Ursolic Acid-Diethanolamine Salt, ursolic acid diethanolamine salt]
Male C57BL/6 mice [1]
  Potency and efficacy compared with native ursolic acid and other ursolic acid salts: more potent and efficacious
Male C57BL/6 mice [1]; [10]
  Grip Strength (% Change vs. Control): 11.7 ± 2.5 %
Male C57BL/6 mice [4]; 0.060% in standard chow
  Final % Fat: 16.6 ± 2.0%
  Final % Lean: 64.2 ± 1.6%
  Final Body Wt: 31.7 ± 0.5 g
  Final Fat Mass: 5.3 ± 0.7 g
  Final Lean Mass: 20.3 ± 0.4* g
Male C57BL/6 mice [4]; 0.180% in standard chow
  Final % Fat: 14.1 ± 1.8* %
  Final % Lean: 65.5 ± 1.4* %
  Final Body Wt: 30.7 ± 0.5 g
  Final Fat Mass: 4.4 ± 0.6* g
  Final Lean Mass: 20.0 ± 0.3 g
Male C57BL/6 mice [4]; conclusion from Table IV, standard chow
  Lean mass and fat mass (conclusion): increased lean mass and decreased fat mass

## CC1CCC2(C(=O)O)CCC3(C)C(=CCC4C5(C)CCC(O)C(C)(C)C5CCC43C)C2C1C.NCCO (stereo not shown) [Ursolic Acid-Ethanolamine Salt, ursolic acid-ethanolamine salt]
Male C57BL/6 mice [1]; [10]
  Grip Strength (% Change vs. Control): 2.8 ± 1.6%

## CC1CCC2(C(=O)O)CCC3(C)C(=CCC4C5(C)CCC(O)C(C)(C)C5CCC43C)C2C1C.NCCCCC(N)C(=O)O (stereo not shown) [Ursolic Acid-Lysine Salt, ursolic acid-lysine salt]
Male C57BL/6 mice [1]; [10]
  Grip Strength (% Change vs. Control): 7.2 ± 2.3%

## C[C@H]1[C@H](C)CC[C@]2(C(=O)O)CC[C@]3(C)C(=CC[C@@H]4[C@@]5(C)CC[C@H](O)C(C)(C)[C@@H]5CC[C@]43C)[C@H]12 [Ursolic Acid-Morpholine Salt, ursolic acid morpholine salt]
Male C57BL/6 mice [1]
  Potency and efficacy compared with native ursolic acid and other ursolic acid salts: more potent and efficacious
Male C57BL/6 mice [1]; [10]
  Grip Strength (% Change vs. Control): 11.3 ± 2.1 %
Male C57BL/6 mice [5]
  Final Body Wt: 34.6 ± 1.0 g
  Final Grip Strength: 181.9 ± 2.4 g
Male C57BL/6 mice [5]; NMR
  Final % Fat: 21.4 ± 2.9 %
  Final % Lean: 61.0 ± 2.2 %
  Final Fat Mass: 7.8 ± 1.2 g
  Final Lean Mass: 20.8 ± 0.3 g
Male C57BL/6 mice [5]; conclusion from Table II
  Skeletal muscle hypertrophy: stimulated skeletal muscle hypertrophy
Male C57BL/6 mice [5]; quadriceps, >4200 fibers per diet
  Muscle fiber diameter: 44.8 ± 0.2 μm
Male C57BL/6 mice [6]
  Skeletal muscle fiber size (FIGS. 1A and 1B): increased skeletal muscle fiber size
Male C57BL/6 mice [7]
  Adipocyte size (FIGS. 2A and 2B): decreased adipocyte size
diet-induced obese mice
  Epididymal Fat Pad Wt: 1804.0 ± 161.5 mg
  Final % Fat: 31.8 ± 3.1 %
  Final % Lean: 55.3 ± 2.4 %
  Final Body Wt: 38.9 ± 1.2 g
  Final Fat Mass: 12.8 ± 1.4 g
  Final Lean Mass: 21.3 ± 0.6 g
  Retroperitoneal Fat Pad Wt: 731.8 ± 86.9 mg
diet-induced obese mice; conclusion from Table III
  Obesity in diet-induced obese mice: reduced obesity
diet-induced obese mice; non-fasting
  Blood Glucose: 177.7 ± 9.9 mg/dL
Male C57BL/6 mice [8]
  Glucose tolerance test area under the curve (AUC): 31,383±1,869
Male C57BL/6 mice [2]
  Fasting blood glucose: 140.6 ± 7.8 mg/dL
  Glucose tolerance test area under the curve (AUC): 32,606±2,471
Male C57BL/6 mice [9]; 7 weeks, 6 h fast, P<0.05
  Glucose tolerance test AUC relative to ursolic acid (FIG. 5): significantly lower
Male C57BL/6 mice [9]; P=0.05
  Grip strength relative to ursolic acid: significantly improved
C2C12 myotubes
  Efficacy relative to ursolic acid (total cellular protein): 3 fold
  Potency relative to ursolic acid (total cellular protein): 3 fold
  Total cellular protein (FIG. 6): significantly increased
Male C57BL/6 mice [3]
  Epididymal Fat Pad Wt: 1713.8 ± 139.8 ^b mg
  Final % Fat: 31.4 ± 2.8 ^b %
  Final % Lean: 57.3 ± 2.1 ^b %
  Final Body Wt: 36.6 ± 0.9 ^b g
  Final Fat Mass: 11.6 ± 1.2 ^b g
  Final Lean Mass: 20.9 ± 0.7 ^a g
  Retroperitoneal Fat Pad Wt: 709.8 ± 72.2 ^b mg
  Skeletal Muscle Wt (mg/g Final Body Wt): 29.1 ± 1.0 ^b mg/g Final Body Wt

## C1CNCCN1.C[C@H]1[C@H](C)CC[C@]2(C(=O)O)CC[C@]3(C)C(=CC[C@@H]4[C@@]5(C)CC[C@H](O)C(C)(C)[C@@H]5CC[C@]43C)[C@H]12 [Ursolic Acid-Piperazine Salt, ursolic acid-piperazine salt]
Male C57BL/6 mice [1]; [10]
  Grip Strength (% Change vs. Control): 3.7 ± 2.5%

## CC1CCC2(C(=O)O)CCC3(C)C(=CCC4C5(C)CCC(O)C(C)(C)C5CCC43C)C2C1C.NC(CO)(CO)CO (stereo not shown) [Ursolic Acid-Tris Salt, ursolic acid-tris(hydroxymethyl)aminomethane salt]
Male C57BL/6 mice [1]; [10]
  Grip Strength (% Change vs. Control): 5.2 ± 1.6%
